Laboratory results taken from patent US5464865A, “4-aryl- and 4-arylthio-5-hydroxy-2(5H)-furanones as inhibitors of phospholipase A2” (Ortho Pharmaceutical Corporation, priority 1993, dated 1995).

Biological target: T1, human platelet phospholipase A2 (Homo sapiens, UniProt P14555)
T1 construct: a preparation of human platelet phospholipase A2; from tissue; host or cells: human platelets
T1 sequence (P14555 21-144): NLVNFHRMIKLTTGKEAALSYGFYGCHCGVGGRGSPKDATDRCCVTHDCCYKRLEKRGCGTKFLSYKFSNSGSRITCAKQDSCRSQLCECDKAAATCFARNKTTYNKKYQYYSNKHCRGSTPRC
Assay: Inhibition of human platelet phospholipase A2 (14C-oleate E. coli substrate)
Type: biochemical
Details: @ 10 μM (values marked *); read-out: Inhibition of PLA2, % Inhibition @ *10 μM
Experimental: The activity of the compounds of the invention against phospholipase A2 is determined using a preparation of human platelet phospholipase A2 with a specific activity of 180 nmol/min/mg as the enzyme source. Polypropylene 15-ml test tubes are utilized as the reaction vessels. All drug samples are run in duplicate, with "blank" and "control" (no test compound) groups run in triplicate. […] Test compounds are dissolved in DMSO, and diluted to a projected final concentration of either 50 or 10 μM in 550 μl HEPES buffer at pH 7.0. A 1:7 dilution of human platelet PLA2 in HEPES buffer (5 μl) is added to each test tube, followed by gentle vortexing for 3 seconds. The reaction tubes containing drug, buffer, and enzyme are preincubated for 15 min at 37°, followed by the addition of 25 μl of ^14 C-oleate E. coli substrate. Details regarding this substrate may be found in a publication by S. Ghosh and R. Franson, Biochem. Cell. Biol., 70, 43 (1992), and references therein.
The tubes are immediately vortexed at moderate speed for 3 sec, followed by a 60 min incubation at 37° in a shaking water bath. The reaction is stopped by the addition of 3 ml of a 1:2 chloroform-methanol mixture. Additional water (1.5 ml) and chloroform (1.0 ml) are added, followed by vortexing. The lower phase is removed with a polypropylene transfer pipette, and transferred to a 13×100 mm polypropylene test tube. The organic solvent is evaporated with a stream of nitrogen, the residue is redissolved in 30 μl of a 9:1 chloroform-methanol mixture, and the solution is spotted on a channeled polyester-backed silica gel TLC plate, such as those available under the trade name PE SIL G available from Whatman Inc, Clifton, N.J.
The plate is developed with an 80:20:1 mixture of petroleum ether-diethyl ether-acetic acid. […] The plate is scored above the origin, cut along the score with scissors, and the reactant (origin) and product portions of each channel are put into separate scintillation vials. To each vial is added a scintillation cocktail (15 ml), preferably that sold under the trademark ECOLUME by ICN Biomedicals, Irvine Calif. The vials are shaken vigorously for 5 sec, and the radioactive ^14 C in each vial is measured with a scintillation counter, which provides the counts-per-minute (cpm) for each sample. The obtained cpm values are corrected for the "blank" values.
The percentage of phospholipid hydrolyzed is calculated by the formula:
Phospholipid converted=100×cpm products / (cpm products+cpm
The inhibition of phospholipase A2 by the test compounds is expressed as a percent inhibition relative to the control group:
% Inhibition=[…]

Point of comparison: `CCCCCCCCOc1ccc(C2=CC(=O)OC2O)cc1OC` (stereo not drawn) [Example 6, 5-Hydroxy-4-(3-methoxy-4-octyloxyphenyl)-2(5H)furanone], inhibition at 10 µM 27%. Against it:
- CCCCCCCCN(C(C)=O)c1ccc(C2=CC(=O)OC2O)cc1 (stereo not drawn) [Example 25, 5-Hydroxy-4-(4-(N-acetyl-N-octylamino)phenyl)-2(5H)furanone] — higher, 40%
- CC1=C(C/C=C(\C)CCCOc2ccc(C3=CC(=O)OC3O)cc2)C(C)(C)CCC1 (stereo not drawn) [Example 26, (E)-5-Hydroxy-4-(4-(4-methyl-6-(2,6,6-trimethyl-1-cyclohexen-1-yl)-4-hexenyloxy)phenyl)-2(5H)-furanone] — higher, 92%
- O=C1C=C(c2ccc(C#Cc3cc4ccccc4s3)cc2)C(O)O1 (stereo not drawn) [Example 62] — higher, 33%
- CCCCCCCCOc1ccc(C2=CC(=O)OC2O)c(OC)c1 (stereo not drawn) [Example 5, 5-Hydroxy-4-(2-methoxy-4-octyloxyphenyl)-2(5H)furanone] — higher, 58%
- O=C1C=C(c2ccc(C#Cc3cccc([N+](=O)[O-])c3)cc2)C(O)O1 (stereo not drawn) [Example 59, 5-Hydroxy-4-(4-(2-(3-nitrophenyl)ethynyl)phenyl)-2(5H)-furanone] — lower, 6%
- CCCCCCCCOc1ccccc1C1=CC(=O)OC1O (stereo not drawn) [Example 8, 5-Hydroxy-4-(2-octyloxyphenyl)-2(5H)furanone] — lower, 21%
- CCCCCCCCOc1ccc(C2=CC(=O)OC2O)cc1Cl (stereo not drawn) [Example 4, 5-Hydroxy-4-(3-chloro-4-octyloxyphenyl)-2(5H)furanone] — higher, 71%
- O=C1C=C(c2ccc(C#Cc3ccc(C(F)(F)F)cc3)cc2)C(O)O1 (stereo not drawn) [Example 58, 5-Hydroxy-4-(4-(2-(4-(trifluoromethyl)phenyl)ethynyl)phenyl)-2(5H)-furanone] — lower, 24%
- CCCCCOc1ccc(SC2=CC(=O)OC2O)cc1 (stereo not drawn) [Example 66, 5-Hydroxy-4-(4-(pentyloxy)phenylthio)-2(5H)-furanone] — higher, 48%
- O=C1C=C(c2cccc(C#Cc3ccccc3)c2)C(O)O1 (stereo not drawn) [Example 63, 5-Hydroxy-4-(3-(2-phenylethynyl)phenyl)-2(5H)-furanone] — higher, 45%
- CCCCCCCCOc1ccc(C2=CC(=O)OC2O)cc1NC(C)=O (stereo not drawn) [Example 9, 5-Hydroxy-4-(3-acetamido-4-octyloxyphenyl)-2(5H)furanone] — lower, 7%
- CCCCCCCCCCCCCOc1ccc(SC2=CC(=O)OC2O)cc1 (stereo not drawn) [Example 65, 5-Hydroxy-4-(4-(tridecyloxy)phenylthio)-2(5H)-furanone] — higher, 98%
- CCCCCCCCS(=O)(=O)c1ccc(C2=CC(=O)OC2O)cc1 (stereo not drawn) [Example 22, 5-Hydroxy-4-(4-octylsulfonyl)phenyl-2(5H)furanone] — higher, 49%
- CCCCCCCCOc1ccc(C2=CC(=O)OC2O)cc1[N+](=O)[O-] (stereo not drawn) [Example 7, 5-Hydroxy-4-(3-nitro-4-octyloxyphenyl)-2(5H)furanone] — higher, 67%
- O=C1C=C(c2ccc(C#Cc3ccc([N+](=O)[O-])cc3)cc2)C(O)O1 (stereo not drawn) [Example 60, 5-Hydroxy-4-(4-(2-(4-nitrophenyl)ethynyl)phenyl)-2(5H)-furanone] — lower, 11%

Same assay, conditions: pH 7.0, 37°, 60 min incubation; read-out: Inhibition of PLA2, IC50

Point of comparison: `O=C1C=C(c2ccc(C(=O)c3ccc4ccccc4c3)cc2)C(O)O1` (stereo not drawn) [Example 29, 5-Hydroxy-4-(4-(2-naphthoyl)phenyl)-2(5H)-furanone], IC50 50 µM. Against it:
- CC(C)(C)C#Cc1ccc(C2=CC(=O)OC2O)cc1 (stereo not drawn) [Example 53, 5-Hydroxy-4-(4-(3,3-dimethyl-1-butynyl)phenyl)-2(5H)-furanone] — within 1.5-fold, 42 µM
- CCCCCCCCOc1ccc(C2=CC(=O)OC2O)cc1Cl (stereo not drawn) [Example 4, 5-Hydroxy-4-(3-chloro-4-octyloxyphenyl)-2(5H)furanone] — 9.3-fold lower, 5.4 µM
- O=C1C=C(c2ccc(C#Cc3cccc4ccccc34)cc2)C(O)O1 (stereo not drawn) [Example 57, 5-Hydroxy-4-(4-(2-(1-naphthyl)ethynyl)phenyl)-2(5H)-furanone] — 6-fold lower, 8.4 µM
- O=C1C=C(c2ccc(Oc3ccc4ccccc4c3)cc2)C(O)O1 (stereo not drawn) [Example 50, 5-Hydroxy-4-(4-(2-naphthyloxy)phenyl)-2(5H)-furanone] — the same, 50 µM
- O=C1C=C(c2ccc(COc3ccc4ccccc4c3)cc2)C(O)O1 (stereo not drawn) [Example 52, 5-Hydroxy-4-(4-(2-naphthyloxymethyl)phenyl)-2(5H)-furanone] — the same, 50 µM
- CCCCCCCCOc1ccc(C2=CC(=O)OC2O)cc1[N+](=O)[O-] (stereo not drawn) [Example 7, 5-Hydroxy-4-(3-nitro-4-octyloxyphenyl)-2(5H)furanone] — 5.3-fold lower, 9.4 µM
- CC1=C(C/C=C(\C)COc2ccc(SC3=CC(=O)OC3O)cc2)C(C)(C)CCC1 (stereo not drawn) [Example 67, (E)-5-Hydroxy-4-(4-(2-methyl-4-(2,6,6-trimethyl-1-cyclohexen-1-yl)-2-butenyloxy)phenylthio)-2(5H)-furanone] — 100-fold lower, 0.5 µM

Same assay, conditions: read-out: Inhibition of PLA2, % Inhibition @ 50 μM

Point of comparison: `O=C1C=C(c2ccc(C(=O)c3ccccc3F)cc2)C(O)O1` (stereo not drawn) [Example 31, 5-Hydroxy-4-(4-(2-fluorobenzoyl)phenyl)-2(5H)-furanone], inhibition at 50 µM 6%. Against it:
- O=C1C=C(c2ccc(/C=C\c3ccccc3)cc2)C(O)O1 (single isomer, unassigned) [Example 33, (Z)-5-Hydroxy-4-(4-(2-phenylethenyl)phenyl)-2(5H)-furanone] — higher, 23%
- O=C1C=C(c2ccc(OS(=O)(=O)C(F)(F)F)cc2)C(O)O1 (stereo not drawn) [Example 46, 5-Hydroxy-4-(4-(trifluoromethanesulfonoxy)phenyl)-2(5H)-furanone] — lower, 0%
- COc1ccc(C#Cc2ccc(C3=CC(=O)OC3O)cc2)cc1 (stereo not drawn) [Example 61, 5-Hydroxy-4-(4-(2-(4-methoxyphenyl)ethynyl)phenyl)-2(5H)-furanone] — higher, 33%
- CC(C)(C)C#Cc1ccc(C2=CC(=O)OC2O)cc1 (stereo not drawn) [Example 53, 5-Hydroxy-4-(4-(3,3-dimethyl-1-butynyl)phenyl)-2(5H)-furanone] — higher, 53%
- O=C1C=C(c2ccc(OCCCc3ccccc3)cc2)C(O)O1 (stereo not drawn) [Example 10, 5-Hydroxy-4-[4-(3-phenylpropyloxy)phenyl]-2(5H)furanone] — higher, 17%
- O=C1C=C(c2ccc(CC(O)COc3ccc4ccccc4c3)cc2)C(O)O1 (racemic) [Example 51, 5-Hydroxy-4-(4-(2-hydroxy-3-(2-naphthyloxy)propyl)phenyl)-2(5H)-furanone] — higher, 30%
- COc1ccc(CCNC(=O)c2ccc(C3=CC(=O)OC3O)cc2)cc1OC (stereo not drawn) [Example 48, 5-Hydroxy-4-(4-((2-(3,4-dimethoxyphenyl)ethyl)aminocarbonyl)phenyl)-2(5H)-furanone] — lower, 0%
- CCCCCCCCSc1nc(C2=CC(=O)OC2O)cs1 (stereo not drawn) [Example 70, 5-Hydroxy-4-(2-(octylthio)-4-thiazolyl)-2(5H)-furanone] — higher, 70%
- CCCCCCCCOc1cccc(C2=CC(=O)OC2O)c1 (stereo not drawn) [Example 3, 5-Hydroxy-4-(3-octyloxyphenyl)-2(5H)furanone] — higher, 39%
- O=C1C=C(c2ccc(C#Cc3cccc4ccccc34)cc2)C(O)O1 (stereo not drawn) [Example 57, 5-Hydroxy-4-(4-(2-(1-naphthyl)ethynyl)phenyl)-2(5H)-furanone] — higher, 69%
- CCCCCCCC(=O)Nc1ccc(C2=CC(=O)OC2O)cc1 (stereo not drawn) [Example 21, 5-Hydroxy-4-(4-(1-oxooctylamino)phenyl)-2(5H)furanone] — lower, 0%
- O=C1C=C(Sc2ccc(Br)cc2)C(O)O1 (stereo not drawn) [Example 68, 5-Hydroxy-4-((4-bromophenyl)thio)-2(5H)-furanone] — lower, 0%
- CCCCCCCCNS(=O)(=O)c1ccc(C2=CC(=O)OC2O)cc1 (stereo not drawn) [Example 45, 5-Hydroxy-4-(4-(octylaminosulfonyl)phenyl)-2(5H)-furanone] — higher, 13%
- O=C1C=C(c2ccc(Cc3ccccc3)cc2)C(O)O1 (stereo not drawn) [Example 49, 5-Hydroxy-4-(4-(phenylmethyl)phenyl)-2(5H)-furanone] — lower, 5%
- O=C1C=C(c2ccc(C(=O)c3ccc4ccccc4c3)cc2)C(O)O1 (stereo not drawn) [Example 29, 5-Hydroxy-4-(4-(2-naphthoyl)phenyl)-2(5H)-furanone] — higher, 59%
- O=C1C=C(c2ccc(Oc3ccc4ccccc4c3)cc2)C(O)O1 (stereo not drawn) [Example 50, 5-Hydroxy-4-(4-(2-naphthyloxy)phenyl)-2(5H)-furanone] — higher, 52%
- O=C1C=C(c2ccc(COc3ccc4ccccc4c3)cc2)C(O)O1 (stereo not drawn) [Example 52, 5-Hydroxy-4-(4-(2-naphthyloxymethyl)phenyl)-2(5H)-furanone] — higher, 51%
- C=CCOc1cccc(C2=CC(=O)OC2O)c1 (stereo not drawn) [Example 11, 5-Hydroxy-4-[(3-allyloxy)phenyl]-2(5H)furanone] — lower, 0%
- CC1=C(C/C=C(\C)COc2ccc(SC3=CC(=O)OC3O)cc2)C(C)(C)CCC1 (stereo not drawn) [Example 67, (E)-5-Hydroxy-4-(4-(2-methyl-4-(2,6,6-trimethyl-1-cyclohexen-1-yl)-2-butenyloxy)phenylthio)-2(5H)-furanone] — higher, 98%
- CCCCCCCC(=O)c1ccc(C2=CC(=O)OC2O)cc1 (stereo not drawn) [Example 32, 5-Hydroxy-4-(4-octanoylphenyl)-2(5H)-furanone] — higher, 55%
- CCCCCCCC(=O)Nc1cccc(C2=CC(=O)OC2O)c1 (stereo not drawn) [Example 20, 5-Hydroxy-4-(3-(1-oxooctylamino)phenyl)-2(5H)furanone] — lower, 0%
- O=C1C=C(c2ccc(C#Cc3ccc4ccccc4c3)cc2)C(O)O1 (stereo not drawn) [Example 56, 5-Hydroxy-4-(4-(2-(2-naphthyl)ethynyl)phenyl)-2(5H)-furanone] — higher, 59%
- CCCCSc1ccc(C2=CC(=O)OC2O)cc1 (stereo not drawn) [Example 24, 5-Hydroxy-4-(4-(butylthio)phenyl)-2(5H)furanone] — lower, 0%
